Measured values published in patent US20190031618A1, “BENZIMIDAZOLE DERIVATIVES USEFUL AS CB-1 INVERSE AGONISTS” (Janssen Pharmaceutica NV, priority 2015, published 2019).
Several values for one entry are separate records, joined by “and”; a condition that tells them apart may be missing. Equal values may be shown once.

What was measured:
[1] = Five-Day Study in DIO Mice: plasma and brain compound levels; conditions: mouse, in vivo, 30 mg/kg
[2] = in vivo; conditions: mouse, 30 mg/kg

Row | Structure (SMILES) | concentration at 2 h [1] | concentration at 2 h [2]
1 | CCc1nc2ccc(C(c3ccc(Cl)cc3)c3ccc(Cl)cc3)cc2n1C1CCN(S(=O)(=O)C(F)(F)F)CC1 [Example 328] | 8360 ng/mL and 291 ng/g | 
2 | O=S(=O)(N1CCC(n2c(C3CC3)nc3ccc(C(c4ccc(Cl)cc4)c4ccc(Cl)cc4)cc32)CC1)C(F)(F)F [Example 335] |  | 7660 ng/mL and 208 ng/g
